Source: ChEMBL document CHEMBL3507680, “University of Dundee, Gates Library screen for HepG2 cell viability”

Assay: Human HepG2 cell viability assay in 384 well format
Format: toxicity, cell-based
Set-up: dose 125 nL, time 70.5 hour; concentration not given beside the values
Settings: HepG2 cells, read-out: Inhibition

Compound | cytotoxicity at 70.5 h [%]
OCC1(Cc2ccccc2F)CCCN(c2ccc3ccccc3n2)C1 (centres undefined) | -1.23
Cn1cc(CN2CCC[C@]3(C[C@H](Oc4ncccc4F)CO3)C2)cn1 | -5.41
CN(Cc1noc(C(C)(C)C)n1)CC1CCN(CCO)CC1 | -3.04
CC(NCCN1CCC(N(C)C)CC1)c1ccc(Cl)s1 (centres undefined) | 14.9
CC(C)OCCSc1nnnn1C1CCOCC1 | -8.16
c1cnnc(NCC2CN(CCn3cncn3)CCO2)c1 (centres undefined) | 11.7
CC(=O)N(Cc1ncc(C)o1)C1CCN(Cc2ccccc2C#N)C1 (centres undefined) | -3.02
CCN(Cc1ccccc1)C(=O)CN1CCCC(Cn2cncn2)C1 (centres undefined) | -4.31
O=C(NCCOc1ccc2c(c1)OCO2)N1CCCC(CO)C1 (centres undefined) | -10
CCCNc1ccc(C(=O)NCCc2ccc(Cl)cc2)cn1 | -5.63
Cn1cnc(S(=O)(=O)N2CCCCc3ccccc32)c1 | 1.57
COc1cc(N2CCN(Cc3ccsc3)C(CCO)C2)nc(N)n1 (centres undefined) | 9.1
CC(C)c1ccc(S(=O)(=O)N2CSCC2C(=O)NCC(F)(F)F)cc1 (centres undefined) | -7.38
CC1CCN(CCCNC(=O)C2CCCCC2)CC1 | -5.79
Cc1cnn(CC2CCCN2CC(=O)Nc2cc(C)on2)c1 (centres undefined) | 0.558
COc1ccc(NC(=O)C(C)n2cncn2)cn1 (centres undefined) | -2.08
Cc1ccccc1CN1CCC(CNc2ncnc3c2CCNCC3)C1 (centres undefined) | 1.87
COC(=O)c1cc(C(=O)N2CCOC(C)(C)C2)n(-c2ccccc2)n1 | -10.1
Cc1ccc(-c2nnc(CN3CCOC(Cn4cccn4)C3)o2)cc1 (centres undefined) | -7.48
O=C(COc1cccc(F)c1)N1CCCCC1c1ccn2ccnc2n1 (centres undefined) | -9.3
Cc1cc(NCCNc2ncccc2C)n2nc(C)cc2n1 | -15.2
O=C(Nc1ccc(F)cc1)C1CSCN1 (centres undefined) | -10.2
COC(=O)c1cc(CN2CCN(c3ncccc3C)CC2)ccc1O | 39.9

Compound | cytotoxicity at 70.5 h [%]
CN1CCN2CCN(Cc3cc(=O)n4c5c(cccc35)CCC4)CC2C1 (centres undefined) | -13.5
CN(C)CC1(O)CCN(C(=O)c2ccc(-n3cnnc3)cc2Cl)C1 (centres undefined) | 7.55
COc1cccc(S(=O)(=O)NC(=O)CCC2CCCC2)c1 | -8.64
O=C(CN1CCC(C(=O)c2cc(F)ccc2F)CC1)NC1CCCC1 | 24.6
CCN1C[C@@H]2CN(c3cc(OC)ncn3)CCC[C@]2(C(=O)O)C1 | -10.9
O=C1CC(c2cccnc2)c2c(c(C(=O)O)cn2-c2ccc(Cl)cc2)N1 (centres undefined) | -7.08
c1ccc(Cc2nnc(CN3CCc4cncnc4C3)o2)cc1 | 1.25
Fc1ccc(C2(CNC3=NCCCN3)CCC2)cc1 | -0.346
CSc1ccc(CN(C(=O)c2cc(C)[nH]c(=O)c2)C2CC2)cc1 | 0.291
COc1ccc(CCN2C(=O)O[C@@H]3CN(C)C[C@@H]32)cc1 | -10.7
O=C(NCc1nncn1C1CC1)C1(c2ccc(F)cc2)CCOCC1 | 16.9
COc1ccccc1CNC(Cn1cncn1)c1ccccc1 (centres undefined) | -2.53
Cc1cccc(S(=O)(=O)NC(=O)CCc2cscn2)c1 | 4.67
CNc1nnc(CCn2nc(C)c(Br)c2C)s1 | 19.6
CCC(CN1CCCC1)NC(=O)C1(c2cccc(F)c2)CC1 (centres undefined) | -6.19
Cc1cc(C)c(CNC(=O)NCC(O)c2ccccc2)c(=O)[nH]1 (centres undefined) | -1.05
CNC(=O)c1n[nH]c2c1C(c1cccc3[nH]ccc13)CC(=O)N2 (centres undefined) | -3.23
CN(C)c1ccc(C(=O)NCCCNc2ccc(C(F)(F)F)cn2)cc1 | -13
O=C(Cc1cccs1)NCc1ccnc(OC2CCOCC2)c1 | -6.12
Fc1ccc(N2CCOC(Cc3cccnc3)C2)cc1 (centres undefined) | -9.3
CCN(CC)CC1CN(Cc2c(C)noc2C)Cc2nccn2C1 (centres undefined) | -4.28
Cc1ccc(N2CCc3ncnc(C4CC4)c3CC2)nn1 | 21.3
CCNc1ccnc(NC2CCN(C(=O)c3ccc(C)cc3)CC2)n1 | -13.3

Compound | cytotoxicity at 70.5 h [%]
CN1CCN(C(=O)c2ncn3c2CN(C)S(=O)(=O)c2ccccc2-3)CC1 | 1.76
CC1CN(Cc2ccccc2)CCCN1CCNS(C)(=O)=O (centres undefined) | -0.345
CCc1nnc(CN2CCC3(CC2)Nc2ccccc2NC3=O)o1 | 19.8
Cn1cc(CN2CC[C@H]3OCC[C@@H](C(=O)Nc4cnccn4)[C@@H]3C2)cn1 | 50.6
CC(C)CN1CC2(CCN(C(=O)c3cn4cccnc4n3)CC2)CC1=O | -17.9
Cc1cc(C)cc(OCC(=O)NC2CCN(S(C)(=O)=O)CC2)c1 | 23.8
Cn1ncc2c(N3CCN(C(=O)c4ccsc4)CC3)ncnc21 | -4.15
CCN(CC1CCOC1)C(=O)NCc1ccc(-n2cncn2)nc1 (centres undefined) | -1.6
O=C(CCc1ccccc1)N1CC(n2cncn2)C1 | -7.88
CC(C)NC(=O)C[C@H]1[C@H]2CN(C(=O)Cc3ccccn3)C[C@@H]12 | 1.47
COCCN1CCC(NC(=O)Nc2cccc(F)c2)C1 (centres undefined) | -0.696
CC(C)N(Cc1ccccn1)S(=O)(=O)N1CCCC1c1ccco1 (centres undefined) | 3.04
Cc1ccc(C(=O)N2CCC3(CC2)c2ccccc2[C@@H](N)[C@@H]3O)cc1F | -10.1
CCn1c(NCC2CCCO2)nc2c(C)nn(C)c2c1=O (centres undefined) | -7.98
CCn1ccnc1CN1CCCC(CO)(CCCc2ccccc2)C1 (centres undefined) | -0.875
O=C1Nc2ccccc2C1C1CCN(C(=O)C2CC2)CC1 (centres undefined) | -6.49
Cc1ccccc1CNC(=O)N1C[C@H]2C[C@H](C(=O)N3CCCC3)[C@@H](C1)O2 | -3.56
CN(C)C(C(=O)NCCS(=O)(=O)N(C)C)c1cccc(F)c1 (centres undefined) | 8.21
CCc1[nH]c2c(CNc3cncc(C(=O)N(C)C)n3)cc(C)cc2c1C | 27.8
Cc1nc(CNC(=O)CC2C(=O)NCCN2CCC(C)C)n[nH]1 (centres undefined) | -8.3
CC(C)CC(=O)N1CCC2(CC1)COCCN2Cc1ccc(F)cc1 | -11.1
CCc1nc(NC(=O)NCCc2cscn2)nn1C | -4.65
CN(C)c1ncccc1CNC(=O)CCNc1ncccn1 | -9.01

Compound | cytotoxicity at 70.5 h [%]
CN1CCC(N(Cc2ccco2)S(=O)(=O)c2ccc(Cl)cc2)CC1 | -3.29
CN(c1ccc(C(=O)NCCCN2CCCCC2)c(Cl)c1)S(C)(=O)=O | -2.79
O=C(NCc1nnc2ccccn12)N1CCOC(c2ccsc2)C1 (centres undefined) | -14.6
N#Cc1nccnc1N1CCC(c2nc(C(F)(F)F)c[nH]2)CC1 | -9.24
Cc1cccc(C2CCCN2Cc2nc(N)nc(N(C)C)n2)c1C (centres undefined) | -9.17
Cn1cnnc1C1CCCN(C(=O)NCc2cc[nH]n2)C1 (centres undefined) | 18.7
CC(O)CN1CCC(CN(C)CCC(=O)NC2CCCC2)CC1 (centres undefined) | -1.49
O=C(c1ccncc1)N1CCC2(CC1)CCN(C(=O)c1cccnc1)C2 | -7.65
CCN(CC)C1(Cc2cc(CC(C)C)on2)COC1 | 0.19
CSCCCN1C[C@H]2CC[C@@H]1CN(Cc1[nH]cnc1C)C2 | -2.71
CNC(=O)[C@@H]1C[C@H]2CN(Cc3nccs3)C[C@H]2N1C | 6.13
Cc1nc(C2CCCN2C(=O)Cc2ccc(F)cc2)ncc1C(N)=O (centres undefined) | -8.28
O=C(O)c1cc(-n2cc3c(n2)CCC3)cc(S(=O)(=O)NC2CCCC2)c1 | 26.3
COc1ccc(C(=O)N(C)Cc2nnc3ccccn23)c(OC)c1 | -15.7
O=S(=O)(c1ccc(F)cc1F)N1CCCCC1c1nnc2n1CCCC2 (centres undefined) | -12.7
Cc1cc(Cl)ccc1C(=O)N1C[C@H](C2CC2)[C@@H](N)C1 | -1.61
Cn1cccc1CNCC1CCCn2cc(C(C)(C)C)nc21 (centres undefined) | 5.68
CCc1nc2n(n1)CC(NCC(=O)Nc1ccc(Cl)cn1)CC2 (centres undefined) | -18.9
CN(Cc1ncc[nH]1)c1nc(-c2ccccn2)nc2c1CCNCC2 | -11.9
Cc1ccc(C(N)c2cccc(S(C)(=O)=O)c2)c(C)c1 (centres undefined) | -7.42
CCC(C)NS(=O)(=O)Cc1cccc(NC(=O)c2cc[nH]c2C)c1 (centres undefined) | -5.4
O=C(NCc1nccs1)N1CCOC(c2ccccc2Cl)C1 (centres undefined) | 10.9
CC(C(N)=O)n1nc(-c2cccs2)cc(N)c1=O (centres undefined) | -3.21

Compound | cytotoxicity at 70.5 h [%]
COCCO[C@H]1CCN(C(=O)NC2CC2)[C@H]1Cc1cnn(C)c1 | -123
Cc1ccc(OCC(=O)NC2CC2)nc1 | -2.52
CC(=O)Nc1cccc(C(=O)N(C)C(C)Cc2cc(C)ccn2)c1 (centres undefined) | -2.97
c1ccc(Cn2cc(CNCC3CCCN3c3cccnn3)cn2)cc1 (centres undefined) | 3.57
N#Cc1nc(COc2ccc3c(c2)OCO3)oc1NC1CCCCC1 | -28.5
OCC(O)CSCc1ccc(Cl)cc1Cl (centres undefined) | 0.304
O=C(NCCc1ccc(F)cc1)C1CN(C(=O)Cn2cncn2)C1 | -13.2
Cc1noc(C)c1S(=O)(=O)N1CCc2nc(C3CCNCC3)ncc2C1 | -6.62
CCc1cc(NCCCOC2CCCC2)ncn1 | -10.7
CC(CC(=O)c1ccccc1)NC(=O)c1ccon1 (centres undefined) | -5.06
CN1CC(=O)N(c2cccc(F)c2)CC12CCN(CC1CC1)C2 (centres undefined) | -3.68
Cc1nc(CN2CCOC3(CCCC3)C2)oc1C | -4.4
COC(=O)c1ccc(N2CCN(CCC(=O)NC(N)=O)C(C)C2)cc1 (centres undefined) | -6.28
O=C(CCC(=O)N1CCOCC1c1ccccc1)c1cccs1 (centres undefined) | -2.2
Cc1cc(C(=O)N2C[C@@H]3[C@@H](CN(C)CCCn4cccn4)[C@@H]3C2)c(C)o1 | -0.851
CC(C)C1CCCN1CCCc1nc(-c2cccs2)no1 (centres undefined) | 2.81
Cc1nc(NCCSc2nnc(C)s2)c2cccnc2n1 | -14.5
CC(C)(C)c1noc(CN2CCCCC2Cn2cncn2)n1 (centres undefined) | -0.0275
Cc1nc(CCN)cc(N2CCC(O)(c3ccccc3)C2)n1 (centres undefined) | -4.16
CCOCc1nnc(NCc2cccnc2)o1 | -7.36
Cc1n[nH]c(C)c1CC(=O)N1CCC(O)(CN2CCOCC2)C1 (centres undefined) | -12.6
CC(C)CN1CCC2(CCN(Cc3ccc(F)cc3)CC2)C1=O | -5.32
